Data as given in patent publication US20240092784A1, “CONDENSED HETEROCYCLIC COMPOUND” (NISSAN CHEMICAL CORPORATION, priority 2020, published 2024).
Where a name gives a salt, the structure may show the parent alone.

Each compound was assayed against human SPR (Homo sapiens (Human), UniProt P35270) (assay: Evaluation Example 2: Measurement of human SPR inhibitory activity (seven concentrations, sepiapterin absorbance at 420 nm)). Settings: Evaluation Example 2, seven concentrations 0.14 nM to 100 nM, 240 minutes at room temperature, read-out: IC50.
Format: biochemical
How it was run: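 His-tagged full-length human SPR (1-261) was expressed in E. coli and the tag removed. Enzyme at 150 ng/mL in 100 mM Tris-HCl pH 7.5/0.01% BSA was mixed with compound (0.14–100 nM, seven points), 120 μM sepiapterin and 160 μM NADPH, both as added-solution concentrations. After 240 min at room temperature, remaining sepiapterin was read at 420 nm to give percent inhibition.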

Chain of human SPR (P35270 whole entry): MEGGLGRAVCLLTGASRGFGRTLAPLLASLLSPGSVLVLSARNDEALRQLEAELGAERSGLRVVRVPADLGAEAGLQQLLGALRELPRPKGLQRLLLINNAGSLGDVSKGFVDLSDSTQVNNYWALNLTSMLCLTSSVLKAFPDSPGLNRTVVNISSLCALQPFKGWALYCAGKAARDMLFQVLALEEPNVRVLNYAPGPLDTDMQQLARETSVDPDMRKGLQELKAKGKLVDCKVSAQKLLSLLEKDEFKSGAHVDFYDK

Row | SMILES | IC50
1 | CC(C)(C)Cn1c(=O)c(C(=O)NC2CC2)c(O)n2nc3c(c12)CCN3CC(F)(F)F [Synthesis Example 398, N-Cyclopropyl-7-hydroxy-4-neopentyl-5-oxo-1-(2,2,2-trifluoroethyl)-2,3,4,5-tetrahydro-1H-pyrrolo[2′,3′:3,4]pyrazolo[1,5-a]pyrimidine-6-carboxamide] | 6.08 nM
2 | CC(C)Cn1c(=O)c(C(=O)NC2CC2)c(O)n2nc3[nH]ccc3c12 [Synthesis Example 399, N-Cyclopropyl-7-hydroxy-4-isobutyl-5-oxo-4,5-dihydro-1H-pyrrolo[2′,3′:3,4]pyrazolo[1,5-a]pyrimidine-6-carboxamide] | 1.56 nM
3 | CC(C)(C)Cn1c(=O)c(C(=O)NC2CC2)c(O)n2nc3c(c12)COC(=O)N3 [Synthesis Example 400, N-Cyclopropyl-8-hydroxy-5-neopentyl-2,6-dioxo-1,2,5,6-tetrahydro-4H-pyrimido[1′,2′:1,5]pyrazolo[3,4-d][1,3]oxazine-7-carboxamide] | 0.7 nM
4 | CC(C)(C)Cn1c(=O)c(C(=O)NC2CC2)c(O)n2nc3c(c12)CCOC(=O)N3 [Synthesis Example 401, N-Cyclopropyl-9-hydroxy-6-neopentyl-2,7-dioxo-1,2,4,5,6,7-hexahydropyrimido[1′,2′:1,5]pyrazolo[3,4-d][1,3]oxazepine-8-carboxamide] | 0.56 nM
5 | CC(C)(C)Cn1c(=O)c(C(=O)NC2CC2)c(O)n2nc3c(c12)CC(=O)N3 [Synthesis Example 402, N-Cyclopropyl-7-hydroxy-4-neopentyl-2,5-dioxo-2,3,4,5-tetrahydro-1H-pyrrolo[2′,3′:3,4]pyrazolo[1,5-a]pyrimidine-6-carboxamide] | 0.63 nM
6 | CC(C)(C)Cn1c(=O)c(C(=O)NC2CC2)c(O)n2nc3c(c12)CCC(=O)N3 [Synthesis Example 403, N-Cyclopropyl-4-hydroxy-1-neopentyl-2,8-dioxo-1,2,7,8,9,10-hexahydropyrido[2′,3′:3,4]pyrazolo[1,5-a]pyrimidine-3-carboxamide] | 0.61 nM
7 | CC(C)Cn1c(=O)c(C(=O)NC2CC2)c(O)n2nc3c(c12)CCC(=O)N3 [Synthesis Example 404, N-Cyclopropyl-4-hydroxy-1-isobutyl-2,8-dioxo-1,2,7,8,9,10-hexahydropyrido[2′,3′:3,4]pyrazolo[1,5-a]pyrimidine-3-carboxamide] | 0.63 nM
8 | CC(C)(C)Cn1c(=O)c(C(=O)NC2CC2)c(O)n2nc3c(c12)CN(C1CCOCC1)C(=O)N3 [Synthesis Example 405, N-Cyclopropyl-8-hydroxy-5-neopentyl-2,6-dioxo-3-(tetrahydro-2H-pyran-4-yl)-1,2,3,4,5,6-hexahydropyrazolo[1,5-a:3,4-d′]dipyrimidine-7-carboxamide] | 0.77 nM
9 | CN1Cc2c(nn3c(O)c(C(=O)NC4CC4)c(=O)n(CC(C)(C)C)c23)NC1=O [Synthesis Example 406, N-Cyclopropyl-8-hydroxy-3-methyl-5-neopentyl-2,6-dioxo-1,2,3,4,5,6-hexahydropyrazolo[1,5-a:3,4-d′]dipyrimidine-7-carboxamide] | 0.93 nM
10 | CC(C)(C)Cn1c(=O)c(C(=O)NC2CC2)c(O)n2nc3c(c12)CN(C1CCC(F)(F)CC1)C(=O)N3 [Synthesis Example 407, N-Cyclopropyl-3-(4,4-difluorocyclohexyl)-8-hydroxy-5-neopentyl-2,6-dioxo-1,2,3,4,5,6-hexahydropyrazolo[1,5-a:3,4-d′]dipyrimidine-7-carboxamide] | 1.23 nM
11 | CC(C)(C)Cn1c(=O)c(C(=O)NC2CC2)c(O)n2nc3c(c12)CN(C1CC1)C(=O)N3 [Synthesis Example 408, N,3-Dicyclopropyl-8-hydroxy-5-neopentyl-2,6-dioxo-1,2,3,4,5,6-hexahydropyrazolo[1,5-a:3,4-d′]dipyrimidine-7-carboxamide] | 0.83 nM
12 | CC(C)(C)Cn1c(=O)c(C(=O)NC2CC2)c(O)n2nc3c(c12)CN(CC1CCOCC1)C(=O)N3 [Synthesis Example 409, N-Cyclopropyl-8-hydroxy-5-neopentyl-2,6-dioxo-3-((tetrahydro-2H-pyran-4-yl)methyl)-1,2,3,4,5,6-hexahydropyrazolo[1,5-a:3,4-d′]dipyrimidine-7-carboxamide] | 0.75 nM
13 | CC(C)(C)Cn1c(=O)c(C(=O)NC2CC2)c(O)n2nc3c(c12)CN(C1CC(F)(F)C1)C(=O)N3 [Synthesis Example 410, N-Cyclopropyl-3-(3,3-difluorocyclobutyl)-8-hydroxy-5-neopentyl-2,6-dioxo-1,2,3,4,5,6-hexahydropyrazolo[1,5-a:3,4-d′]dipyrimidine-7-carboxamide] | 1.5 nM
14 | CC(C)(C)Cn1c(=O)c(C(=O)NC2CC2)c(O)n2nc(N)c(/C=C/C(=O)N3CCOCC3)c12 [Synthesis Example 411, (E)-2-Amino-N-cyclopropyl-7-hydroxy-3-(3-morpholino-3-oxoprop-1-en-1-yl)-4-neopentyl-5-oxo-4,5-dihydropyrazolo[1,5-a]pyrimidine-6-carboxamide] | 0.65 nM
15 | CCOC(=O)/C=C/c1c(NC(=O)OC(C)(C)C)nn2c(O)c(C(=O)NC3CC3)c(=O)n(CC(C)C)c12 [Synthesis Example 412, Ethyl (E)-3-(2-((tert-butoxycarbonyl)amino)-6-(cyclopropylcarbamoyl)-7-hydroxy-4-isobutyl-5-oxo-4,5-dihydropyrazolo[1,5-a]pyrimidin-3-yl)acrylate] | 1.85 nM
16 | CC(C)Cn1c(=O)c(C(=O)NC2CC2)c(O)n2nc(NC(=O)OC(C)(C)C)c(/C=C/C(=O)N3CCC(F)(F)CC3)c12 [Synthesis Example 413, Tert-butyl (E)-(6-(cyclopropylcarbamoyl)-3-(3-(4,4-difluoropiperidin-1-yl)-3-oxoprop-1-en-1-yl)-7-hydroxy-4-isobutyl-5-oxo-4,5-dihydropyrazolo[1,5-a]pyrimidin-2-yl)carbamate] | 1.32 nM
17 | CC(C)Cn1c(=O)c(C(=O)NC2CC2)c(O)n2nc(N)c(/C=C/C(=O)N3CCC(F)(F)CC3)c12 [Synthesis Example 414, (E)-2-Amino-N-cyclopropyl-3-(3-(4,4-difluoropiperidin-1-yl)-3-oxoprop-1-en-1-yl)-7-hydroxy-4-isobutyl-5-oxo-4,5-dihydropyrazolo[1,5-a]pyrimidine-6-carboxamide hydrochloride] | 0.7 nM
18 | CC(C)Cn1c(=O)c(C(=O)NC2CC2)c(O)n2nc(NC(=O)OC(C)(C)C)c(/C=C/C(=O)N3CCOCC3)c12 [Synthesis Example 415, Tert-butyl (E)-(6-(cyclopropylcarbamoyl)-7-hydroxy-4-isobutyl-3-(3-morpholino-3-oxoprop-1-en-1-yl)-5-oxo-4,5-dihydropyrazolo[1,5-a]pyrimidin-2-yl)carbamate] | 0.74 nM
19 | CC(C)Cn1c(=O)c(C(=O)NC2CC2)c(O)n2nc(N)c(/C=C/C(=O)N3CCOCC3)c12 [Synthesis Example 416, (E)-2-Amino-N-cyclopropyl-7-hydroxy-4-isobutyl-3-(3-morpholino-3-oxoprop-1-en-1-yl)-5-oxo-4,5-dihydropyrazolo[1,5-a]pyrimidine-6-carboxamide] | 0.59 nM
20 | CC(C)Cn1c(=O)c(C(=O)NC2CC2)c(O)n2nc(N)c(/C=C/C(=O)N3CCOC[C@@H]3C)c12 [Synthesis Example 417, (S,E)-2-Amino-N-cyclopropyl-7-hydroxy-4-isobutyl-3-(3-(3-methylmorpholino)-3-oxoprop-1-en-1-yl)-5-oxo-4,5-dihydropyrazolo[1,5-a]pyrimidine-6-carboxamide hydrochloride] | 0.59 nM
